# pIC50, pKi: −log10 of the molar value.
# How the values were obtained:
# Rattus norvegicus [1] = test: Antidiabetic activity in STZ-nicotinamide diabetic Wistar rat T2DM model assessed as decrease in blood glucose level at 5 mg/kg, po after 1 hr by enzymatic glucose oxidase method relative to control; type: functional; parameters: scale not given: the % may be the effect or the level left
# Rattus norvegicus [2] = test: Antidiabetic activity in STZ-nicotinamide diabetic Wistar rat T2DM model assessed as decrease in blood glucose level at 5 mg/kg, po after 3 hrs by enzymatic glucose oxidase method relative to control; type: functional; parameters: scale not given: the % may be the effect or the level left
# Rattus norvegicus [3] = test: Antidiabetic activity in STZ-nicotinamide diabetic Wistar rat T2DM model assessed as decrease in blood glucose level at 5 mg/kg, po after 5 hrs by enzymatic glucose oxidase method relative to control; type: functional; parameters: scale not given: the % may be the effect or the level left
# Rattus norvegicus [4] = test: Antidiabetic activity in STZ-nicotinamide diabetic Wistar rat T2DM model assessed as decrease in blood glucose level at 5 mg/kg, po after 7 hrs by enzymatic glucose oxidase method relative to control; type: functional; parameters: scale not given: the % may be the effect or the level left
# Rattus norvegicus [5] = test: Antidiabetic activity in STZ-nicotinamide diabetic Wistar rat T2DM model assessed as decrease in blood glucose level at 50 mg/kg, po after 1 hr by enzymatic glucose oxidase method relative to control; type: functional; parameters: scale not given: the % may be the effect or the level left
# Rattus norvegicus [6] = test: Antidiabetic activity in STZ-nicotinamide diabetic Wistar rat T2DM model assessed as decrease in blood glucose level at 50 mg/kg, po after 3 hrs by enzymatic glucose oxidase method relative to control; type: functional; parameters: scale not given: the % may be the effect or the level left
# Rattus norvegicus [7] = test: Antidiabetic activity in STZ-nicotinamide diabetic Wistar rat T2DM model assessed as decrease in blood glucose level at 50 mg/kg, po after 5 hrs by enzymatic glucose oxidase method relative to control; type: functional; parameters: scale not given: the % may be the effect or the level left
# Rattus norvegicus [8] = test: Antidiabetic activity in STZ-nicotinamide diabetic Wistar rat T2DM model assessed as decrease in blood glucose level at 50 mg/kg, po after 7 hrs by enzymatic glucose oxidase method relative to control; type: functional; parameters: scale not given: the % may be the effect or the level left
# [9] = molecular target: T1, Low molecular weight phosphotyrosine protein phosphatase (Homo sapiens, UniProt P24666); test: Inhibition of human recombinant LMW-PTP1 expressed in Escherichia coli TB1 using p-nitrophenyl phosphate as substrate after 1 hr
# T1 sequence (P24666 whole entry): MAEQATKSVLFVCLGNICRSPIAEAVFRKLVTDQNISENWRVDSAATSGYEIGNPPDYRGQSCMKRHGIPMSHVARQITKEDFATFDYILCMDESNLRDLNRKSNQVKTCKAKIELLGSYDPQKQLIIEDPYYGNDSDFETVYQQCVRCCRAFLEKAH
# [10] = molecular target: T1, Low molecular weight phosphotyrosine protein phosphatase; test: Inhibition of human recombinant LMW-PTP2 expressed in Escherichia coli TB1 using p-nitrophenyl phosphate as substrate after 1 hr
# [11] = Inhibition of yeast LMW-PTP1 expressed in Escherichia coli TB1 using p-nitrophenyl phosphate as substrate after 1 hr; parameters: species or system Saccharomyces cerevisiae
# [12] = molecular target: Receptor-type tyrosine-protein phosphatase F (Homo sapiens, UniProt P10586); test: Inhibition of human recombinant LAR expressed in Escherichia coli TB1 using p-nitrophenyl phosphate as substrate after 1 hr
# Mus musculus = organism: Mus musculus; test: Antidiabetic activity in normal Swiss mouse assessed as reduction of blood glucose level by glucose tolerance test relative to control; type: functional; parameters: scale not given: the % may be the effect or the level left
# [13] = molecular target: T2, Tyrosine-protein phosphatase non-receptor type 1 (Homo sapiens, UniProt P18031); test: Mixed type inhibition of human recombinant PTP-1B expressed in Escherichia coli TB1 using p-nitrophenyl phosphate as substrate
# T2 sequence (P18031 whole entry): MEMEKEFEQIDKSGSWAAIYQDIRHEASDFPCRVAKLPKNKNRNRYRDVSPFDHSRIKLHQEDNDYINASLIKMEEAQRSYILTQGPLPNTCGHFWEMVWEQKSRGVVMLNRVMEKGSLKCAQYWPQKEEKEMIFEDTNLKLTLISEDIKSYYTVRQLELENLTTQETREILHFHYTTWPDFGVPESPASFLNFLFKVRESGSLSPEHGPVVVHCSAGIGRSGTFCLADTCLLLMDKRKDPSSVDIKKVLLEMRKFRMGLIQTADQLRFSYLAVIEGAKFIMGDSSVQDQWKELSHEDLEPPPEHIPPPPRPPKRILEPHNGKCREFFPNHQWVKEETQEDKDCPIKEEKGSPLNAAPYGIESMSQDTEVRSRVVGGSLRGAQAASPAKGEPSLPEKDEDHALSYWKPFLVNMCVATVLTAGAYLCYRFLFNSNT
# [14] = molecular target: T2, Tyrosine-protein phosphatase non-receptor type 1
# Description: Inhibition of human recombinant PTP-1B expressed in Escherichia coli TB1 using p-nitrophenyl phosphate as substrate after 1 hr
# Receptor-type tyrosine-protein phosphatase F, sequence (P10586 whole entry): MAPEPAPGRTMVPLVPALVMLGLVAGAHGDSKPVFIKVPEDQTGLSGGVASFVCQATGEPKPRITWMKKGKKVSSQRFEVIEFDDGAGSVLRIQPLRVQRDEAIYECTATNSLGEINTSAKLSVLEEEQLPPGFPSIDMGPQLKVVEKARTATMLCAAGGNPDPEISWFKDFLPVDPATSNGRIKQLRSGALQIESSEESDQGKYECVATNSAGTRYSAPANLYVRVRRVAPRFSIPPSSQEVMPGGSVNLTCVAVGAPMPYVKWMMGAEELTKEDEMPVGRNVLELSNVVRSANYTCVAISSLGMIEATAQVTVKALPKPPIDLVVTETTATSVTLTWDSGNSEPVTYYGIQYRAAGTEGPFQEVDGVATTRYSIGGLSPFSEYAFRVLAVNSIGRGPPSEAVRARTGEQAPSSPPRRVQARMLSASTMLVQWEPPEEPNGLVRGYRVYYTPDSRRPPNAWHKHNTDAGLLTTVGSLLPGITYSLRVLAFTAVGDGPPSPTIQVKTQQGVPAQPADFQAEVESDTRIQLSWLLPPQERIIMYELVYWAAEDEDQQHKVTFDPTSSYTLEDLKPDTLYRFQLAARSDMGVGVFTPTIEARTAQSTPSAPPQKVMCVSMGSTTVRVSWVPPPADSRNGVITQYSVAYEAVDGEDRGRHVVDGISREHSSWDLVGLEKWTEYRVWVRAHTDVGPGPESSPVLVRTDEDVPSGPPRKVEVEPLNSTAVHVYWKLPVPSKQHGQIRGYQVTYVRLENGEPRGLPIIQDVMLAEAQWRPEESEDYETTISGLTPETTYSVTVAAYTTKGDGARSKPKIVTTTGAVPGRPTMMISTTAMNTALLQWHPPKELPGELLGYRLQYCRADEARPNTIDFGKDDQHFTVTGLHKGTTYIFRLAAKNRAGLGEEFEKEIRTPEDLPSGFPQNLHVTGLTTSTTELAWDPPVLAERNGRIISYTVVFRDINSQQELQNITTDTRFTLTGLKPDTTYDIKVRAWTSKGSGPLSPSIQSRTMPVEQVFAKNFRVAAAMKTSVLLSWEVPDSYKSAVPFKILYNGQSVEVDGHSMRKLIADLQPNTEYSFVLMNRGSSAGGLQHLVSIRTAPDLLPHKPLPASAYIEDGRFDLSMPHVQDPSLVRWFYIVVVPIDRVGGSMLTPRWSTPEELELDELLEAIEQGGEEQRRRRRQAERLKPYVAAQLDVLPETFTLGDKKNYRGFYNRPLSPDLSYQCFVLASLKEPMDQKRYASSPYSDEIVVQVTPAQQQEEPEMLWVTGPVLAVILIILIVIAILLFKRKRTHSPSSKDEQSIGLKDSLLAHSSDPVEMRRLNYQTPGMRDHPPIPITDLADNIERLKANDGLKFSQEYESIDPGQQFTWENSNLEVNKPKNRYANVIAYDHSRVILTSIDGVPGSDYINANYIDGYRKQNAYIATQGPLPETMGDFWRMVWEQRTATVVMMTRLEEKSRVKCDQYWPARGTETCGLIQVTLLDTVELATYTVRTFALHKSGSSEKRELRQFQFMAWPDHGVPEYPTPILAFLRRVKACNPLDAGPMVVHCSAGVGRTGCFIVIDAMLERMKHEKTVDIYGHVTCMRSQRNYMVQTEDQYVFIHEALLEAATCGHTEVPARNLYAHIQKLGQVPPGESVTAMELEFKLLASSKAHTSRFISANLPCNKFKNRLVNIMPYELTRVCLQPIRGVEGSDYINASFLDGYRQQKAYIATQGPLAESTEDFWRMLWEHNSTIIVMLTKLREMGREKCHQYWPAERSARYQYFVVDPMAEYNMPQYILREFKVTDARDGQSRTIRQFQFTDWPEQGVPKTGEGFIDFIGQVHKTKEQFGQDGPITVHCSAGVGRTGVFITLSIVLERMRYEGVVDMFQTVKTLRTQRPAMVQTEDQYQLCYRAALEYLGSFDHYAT
compound,measurement,setting,value
COc1ccc(Cl)cc1C(=O)NCCc1ccc(S(=O)(=O)NC(=O)NC2CCCCC2)cc1 [GLYBURIDE],Activity,Rattus norvegicus [1],20.4%
same,Activity,Rattus norvegicus [2],36.3%
same,Activity,Rattus norvegicus [3],37.5%
same,Activity,Rattus norvegicus [4],43.6%
C[C@H]1[C@H](C)CC[C@]2(C(=O)O)CC[C@]3(C)C(=CC[C@@H]4[C@@]5(C)CC[C@H](O)C(C)(C)[C@@H]5CC[C@]43C)[C@H]12 [URSOLIC ACID],Activity,Rattus norvegicus [5],13.5%
same,Activity,Rattus norvegicus [6],24.4%
same,Activity,Rattus norvegicus [7],25.7%
same,Activity,Rattus norvegicus [8],38%
same,pIC50,[9],5.14
same,pIC50,[10],4.95
same,pIC50,[11],4.70
same,pIC50,[12],5.42
CC1(C)CC[C@]2(C(=O)O)CC[C@]3(C)C(=CC[C@@H]4[C@@]5(C)CC[C@H](O)C(C)(C)[C@@H]5CC[C@]43C)[C@@H]2C1 [OLEANOLIC_ACID],Activity,Rattus norvegicus [5],26.9%
same,Activity,Rattus norvegicus [6],14.1%
same,Activity,Rattus norvegicus [7],23.2%
same,Activity,Rattus norvegicus [8],21.9%
same,Activity,Mus musculus,22%
same,pIC50,[9],4.67
same,pIC50,[10],4.64
same,pIC50,[11],4.35
same,pIC50,[12],4.93
CC1(C)C=C2[C@H]3CC[C@@H]4[C@@]5(C)CCC(=O)C(C)(C)[C@@H]5CC[C@@]4(C)[C@]3(C)CC[C@@]2(C(=O)O)CC1 [MORONIC ACID],Activity,Rattus norvegicus [5],17.3%
same,Activity,Rattus norvegicus [6],26.3%
same,Activity,Rattus norvegicus [7],15.3%
same,Activity,Rattus norvegicus [8],29.2%
same,pIC50,[9],4.69
same,pIC50,[10],4.56
same,pIC50,[11],4.29
same,pIC50,[12],4.34
same,pKi,[13],5.10
same,pIC50,[14],4.88
CC1(C)C=C2[C@H]3CC[C@@H]4[C@@]5(C)CC[C@H](O)C(C)(C)[C@@H]5CC[C@@]4(C)[C@]3(C)CC[C@@]2(C(=O)O)CC1 [MOROLIC ACID],Activity,Rattus norvegicus [5],1.54%
same,Activity,Rattus norvegicus [6],15.2%
same,Activity,Rattus norvegicus [7],8.77%
same,Activity,Rattus norvegicus [8],39.2%
same,pIC50,[9],4.87
same,pIC50,[10],4.51
same,pIC50,[12],4.44
